From US12364682B2, “Use of tegaserod in preparation of anti-tumor drug” (Qingdao Haiji Biomedicine Co., Ltd., priority 2019, dated 2025)
Structures can show the parent of a compound that is named as a salt.

Columns and labels:
STAT3 = experiment: STAT3-dependent luciferase reporter gene test; type: cell-based; settings: Homo sapiens; SKA cells (A549 with STAT3-luciferase reporter gene), 24 h; read-out: IC50 of inhibitory effect on STAT3 (luciferase reporter)
Experimental: HeLa and SKA cells (A549 cells constructed with the STAT3-luciferase reporter gene) were cultivated in a DMEM medium, and DU145, A549, DLD1, H460, and MC38 were cultivated in an RPMI 1640 medium. For routine cultivation, 10% fetal bovine serum (FBS), 100 IU/ml penicillin, and […] streptomycin were added to a medium. All cells were cultivated at 37° C. and 5% CO2.
SKA cells were inoculated into a white 96-well plate at a density of 1×10^4/well, and cultivated overnight at 37° C. and 5% CO2. A drug to be tested was added at a concentration to be tested to act on the cells for 24 h. The luciferase activity was determined on a SpectraMax®L microplate reader using a luciferase kit (purchased from Promega®).

STAT3 (Y705) = experiment: Western blotting of IL-6-induced STAT3 activation in HeLa cells; type: cell-based; settings: 2 h drug, then 5 ng/ml IL-6 for 10 min
Experimental: (§1) The cells were harvested and lysed with an RIPA buffer, a resulting lysate was subjected to sodium dodecyl sulfate-polyacrylamide gel electrophoresis (SDS-PAGE), and a resulting protein was transferred to a nitrocellulose (NC) membrane (purchased from GE Healthcare®). A primary antibody was added to bind the protein to be tested on the membrane, then a horseradish peroxidase (HRP)-conjugated secondary antibody (purchased from Absin) was added for incubation, and finally a formed immunocomplex was detected with an Immobilon™ Western chemiluminescent HRP substrate (Millipore®) and photographed with a Tanon® 5200 imaging system.
IL-6 was the main cytokine to activate STAT3 signaling. Hela cells were first treated with different concentrations of Tegaserod for 2 h, then stimulated with 5 ng/ml IL-6 for 10 min before harvested. Total protein was extracted, and the phosphorylation of STAT3 (Y705) was detected through western blotting.

STAT3 Tyr705 [1] = experiment: Western blotting of constitutive STAT3 activation in DU145 cells; type: cell-based, human; settings: constitutively activated STAT3, 2 h
Experimental: as §1
(§2) Different concentrations of Tegaserod were added to normally-cultured cells to act on the cells for 2 h, a cell protein lysate was collected for western blotting assay, and an activation status of STAT3 was observed through a phosphorylation status at an STAT3 Tyr705 site.

phosphorylated STAT3 = experiment: Immunohistochemistry of phosphorylated STAT3 in DU145 transplanted tumors; type: in vivo, nude mice; settings: oral administration
Experimental: (§3) Paraffin sections were deparaffinized with xylene, washed with ethanol of various grades, subjected to antigen retrieval, blocked with a blocking solution in a 37° C. incubator, then treated with a primary antibody and a secondary antibody, stained with a DAB staining solution, treated with hematoxylin, a differentiation solution, an ammonia solution, ethanol of various grades, and xylene, and sealed with a neutral resin.
In addition, the human prostate cancer cell line DU145 with constitutive STAT3 activation was selected, and the effect of Tegaserod on the growth of transplanted tumors of the human prostate cancer cell line in nude mice was also tested.

TYK2 Tyr1054/1055 = target: T1, TYK2 Tyr1054/1055 (Homo sapiens, UniProt P29597); experiment: Western blotting of TYK2 phosphorylation in DU145 cells; type: cell-based; settings: high concentration 15 μM, 2 h
T1 construct: endogenous in cells; host or cells: DU145
Experimental: as §1
(§4) STAT3 is usually JAK-kinase-phosphorylated and activated by the autophosphorylated JAK kinase upstream thereof.

STAT3 Tyr705 [2] = experiment: Western blotting of constitutive STAT3 activation in A549 cells; type: cell-based; settings: constitutively activated STAT3, 2 h
Experimental: as §1, §2

[3] = system: prostate cancer DU145 cells; experiment: Cell viability assay, DU145; type: cell-based; settings: Homo sapiens, DU-145, 72 h, read-out: growth inhibition IC50
Experimental: (§5) Cells were inoculated into a 96-well plate at a density of 3,000 cells/well. After the cells were cultivated for 18 h, different concentrations of a drug to be tested were added to act on the cells. 72 h after the drug to be tested was added, 10 μl of resazurin (1 mg/ml) was added to each well, the plate was further incubated for 3 h, and then a fluorescence value at 595 nm (excitation wavelength at 544 nm) was determined on a SpectraMax®i3 multifunctional microplate reader (purchased from Molecular Device®)
(§6) After cells were treated with Tegaserod for 72 h, the cell viability was determined to reflect the inhibitory effect of the drug on cell growth.

[4] = system: immune cells in MC38 transplanted tumors; experiment: FCM analysis of immune cells in MC38 tumors; type: in vivo, mice
Experimental: (§7) At the end of the experiment, the mice were sacrificed by C02, a proper amount of tumor tissue was collected and placed in a dissociation tube with a mouse tumor dissociation reagent (MC38 transplanted tumor) or human tumor dissociation reagent (DU145 transplanted tumor), and a tissue dissociator (Miltenyi) was used for dissociation. Separated single cells were subjected to RBC lysis and dead cell staining, obtained cells were incubated with a blocking solution at 4° C., a corresponding antibody was added, and analysis was conducted on a FACSAriaIII cell sorter.
(§8) Some parts in nude mice had acquired immune cell deficiency and an imperfect immune system, and thus the anti-tumor effect and immunomodulatory effect of Tegaserod were further tested in immune-sound mice.

JAK2 Tyr1007/1008 = target: T2, JAK2 Tyr1007/1008 (Homo sapiens, UniProt O60674); experiment: Western blotting of JAK2 phosphorylation in DU145 cells; type: cell-based; settings: 7.5 μM, 2 h
T2 construct: endogenous in cells; host or cells: DU145
Experimental: as §1, §4

[5] = Body weight and toxicity observation in tumor-bearing mice; type: in vivo
Experimental: (§9) Nude mice were subcutaneously injected with an A549 cell suspension (female mice) or a DU145 matrigel cell suspension (male mice). After palpable solid tumors were formed, constructed model mice were randomly divided into groups, each with 7 to 10 mice. Administration treatment was conducted according to the experimental grouping. Throughout the experiment, a body weight was measured regularly. A tumor volume was calculated as follows: tumor volume=0.5×length×width×width.

JAK1 Tyr1022/1023 = target: T3, JAK1 Tyr1022/1023 (Homo sapiens, UniProt P23458); experiment: Western blotting of JAK1 phosphorylation in DU145 cells; type: cell-based
T3 construct: endogenous in cells; host or cells: DU145
Experimental: as §1, §4

[6] = system: NSCLC A549 transplanted tumors; experiment: A549 transplanted tumor nude mouse model; type: in vivo, nude mice
Experimental: (§10) Female NRMI nu/nu athymic nude mice (SPF grade, 6 weeks old, with a weight of 17 g to 20 g) were purchased from GemPharmatech®, and raised in a constant-temperature and constant-humidity environment according to standard requirements, where a 12 h light-dark cycle was adopted. The animal experiment was approved by the Laboratory Animal Committee of Ocean University of China and complied with the “Guide for Care and Use of Laboratory Animals” published by the National Institutes of Health (NIH Publication No. 85-23, revised in 1996).
as §9

[7] = system: immune cells in peripheral blood; experiment: Blood cell analysis of peripheral blood; type: in vivo; settings: tumor-bearing mice, after administration
Experimental: After the tumor-bearing mice were sacrificed by CO2, blood was collected from the heart and placed into an EDTA anticoagulation tube, and the blood cell component test was conducted using an IDEXX ProCyte Dx automatic blood cell analyzer.
In order to verify this hypothesis, the composition change of immune cells in peripheral blood after the administration of Tegaserod was first detected.

[8] = system: prostate cancer DU145 transplanted tumors; experiment: DU145 transplanted tumor nude mouse model; type: in vivo, nude mice
Experimental: as §10, §9

DLD1 colon cancer cells = experiment: Cell viability assay, DLD1; type: cell-based; settings: Homo sapiens, DLD-1, 72 h, read-out: growth inhibition IC50
Experimental: as §5, §6

lung cancer A549 cells = experiment: Cell viability assay, A549; type: cell-based; settings: Homo sapiens, 72 h, read-out: growth inhibition IC50
Experimental: as §5, §6

[9] = system: immune cells in DU145 transplanted tumors; experiment: FCM analysis of immune cells in DU145 transplanted tumors; type: in vivo; settings: DU145 transplanted tumors in nude mice
Experimental: as §7
Furthermore, the composition and proportion of immune cells in DU145 transplanted tumors in nude mice were tested through FCM.

[10] = system: CRC MC38 transplanted tumors; experiment: CRC MC38 syngeneic tumor model; type: in vivo; settings: immune-sound mice
Text: as §8

[11] = system: cell proliferation marker Ki67; experiment: Immunohistochemistry of Ki67 in DU145 transplanted tumors; type: in vivo, nude mice; settings: oral 1.25 mg/kg once every two days
Experimental: as §3

[12] = system: mouse stromal cells of DU145 transplanted tumors; experiment: Transcriptome sequencing of DU145 transplanted tumors; type: in vivo, nude mice; settings: mouse-derived cells in DU145 transplanted tumors, mRNA sequencing
Experimental: An appropriate amount of tumor tissue was collected and quick-frozen with liquid nitrogen, and eukaryotic mRNA sequencing was conducted by Majorbio. Based on the Illumina® Novaseq 6000™ sequencing platform, all mRNAs transcribed from specific eukaryotic tissues or cells in a specified period were sequenced. In the sequencing experiment, the Illumina Truseq™ RNA sample prep kit method was used to build a library. Raw data were used for quality control, sequence alignment, transcript assembly, function annotation, and expression analysis.
In order to further explore the immunomodulatory effect of Tegaserod in an anti-tumor process, the transcriptome sequencing technology was used to conduct mRNA sequencing for DU145 transplanted tumors in nude mice, and sequencing results were aligned to the mouse reference genome to obtain the overall mRNA expression of mouse-derived cells in DU145 transplanted tumors in nude mice.

lung cancer H460 cells = experiment: Cell viability assay, H460; type: cell-based; settings: Homo sapiens, NCI-H460, 72 h, read-out: growth inhibition IC50
Experimental: as §5, §6

T3 sequence (P23458 whole entry): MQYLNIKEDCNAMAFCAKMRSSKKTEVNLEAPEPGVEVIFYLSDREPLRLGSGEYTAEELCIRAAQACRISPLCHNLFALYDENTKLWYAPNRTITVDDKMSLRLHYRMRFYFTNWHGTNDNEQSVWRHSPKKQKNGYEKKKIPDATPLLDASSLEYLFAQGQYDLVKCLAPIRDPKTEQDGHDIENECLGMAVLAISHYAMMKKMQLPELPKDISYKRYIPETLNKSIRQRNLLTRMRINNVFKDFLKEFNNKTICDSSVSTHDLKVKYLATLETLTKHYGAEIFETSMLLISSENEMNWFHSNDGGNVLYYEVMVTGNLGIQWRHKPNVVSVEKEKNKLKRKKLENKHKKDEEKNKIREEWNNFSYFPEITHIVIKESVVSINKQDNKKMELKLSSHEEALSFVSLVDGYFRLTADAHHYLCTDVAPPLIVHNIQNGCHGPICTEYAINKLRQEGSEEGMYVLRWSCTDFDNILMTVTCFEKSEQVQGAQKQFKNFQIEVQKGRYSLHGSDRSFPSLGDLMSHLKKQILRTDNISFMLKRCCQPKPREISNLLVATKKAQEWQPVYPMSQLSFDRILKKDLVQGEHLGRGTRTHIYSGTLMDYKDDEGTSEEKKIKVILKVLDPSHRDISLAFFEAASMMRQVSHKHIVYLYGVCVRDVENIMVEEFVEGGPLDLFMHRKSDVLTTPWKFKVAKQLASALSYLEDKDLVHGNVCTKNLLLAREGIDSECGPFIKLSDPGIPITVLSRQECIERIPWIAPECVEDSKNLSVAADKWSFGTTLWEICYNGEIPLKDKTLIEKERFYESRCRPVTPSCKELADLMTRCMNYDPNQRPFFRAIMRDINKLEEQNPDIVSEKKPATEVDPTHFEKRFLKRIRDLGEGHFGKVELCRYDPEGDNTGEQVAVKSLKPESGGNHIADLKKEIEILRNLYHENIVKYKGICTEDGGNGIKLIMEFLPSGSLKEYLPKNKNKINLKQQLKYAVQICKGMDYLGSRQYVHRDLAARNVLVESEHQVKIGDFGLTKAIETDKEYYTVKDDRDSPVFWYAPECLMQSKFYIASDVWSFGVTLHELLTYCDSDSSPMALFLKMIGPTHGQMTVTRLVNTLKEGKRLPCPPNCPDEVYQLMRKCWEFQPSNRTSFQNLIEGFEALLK
T2 sequence (O60674 whole entry): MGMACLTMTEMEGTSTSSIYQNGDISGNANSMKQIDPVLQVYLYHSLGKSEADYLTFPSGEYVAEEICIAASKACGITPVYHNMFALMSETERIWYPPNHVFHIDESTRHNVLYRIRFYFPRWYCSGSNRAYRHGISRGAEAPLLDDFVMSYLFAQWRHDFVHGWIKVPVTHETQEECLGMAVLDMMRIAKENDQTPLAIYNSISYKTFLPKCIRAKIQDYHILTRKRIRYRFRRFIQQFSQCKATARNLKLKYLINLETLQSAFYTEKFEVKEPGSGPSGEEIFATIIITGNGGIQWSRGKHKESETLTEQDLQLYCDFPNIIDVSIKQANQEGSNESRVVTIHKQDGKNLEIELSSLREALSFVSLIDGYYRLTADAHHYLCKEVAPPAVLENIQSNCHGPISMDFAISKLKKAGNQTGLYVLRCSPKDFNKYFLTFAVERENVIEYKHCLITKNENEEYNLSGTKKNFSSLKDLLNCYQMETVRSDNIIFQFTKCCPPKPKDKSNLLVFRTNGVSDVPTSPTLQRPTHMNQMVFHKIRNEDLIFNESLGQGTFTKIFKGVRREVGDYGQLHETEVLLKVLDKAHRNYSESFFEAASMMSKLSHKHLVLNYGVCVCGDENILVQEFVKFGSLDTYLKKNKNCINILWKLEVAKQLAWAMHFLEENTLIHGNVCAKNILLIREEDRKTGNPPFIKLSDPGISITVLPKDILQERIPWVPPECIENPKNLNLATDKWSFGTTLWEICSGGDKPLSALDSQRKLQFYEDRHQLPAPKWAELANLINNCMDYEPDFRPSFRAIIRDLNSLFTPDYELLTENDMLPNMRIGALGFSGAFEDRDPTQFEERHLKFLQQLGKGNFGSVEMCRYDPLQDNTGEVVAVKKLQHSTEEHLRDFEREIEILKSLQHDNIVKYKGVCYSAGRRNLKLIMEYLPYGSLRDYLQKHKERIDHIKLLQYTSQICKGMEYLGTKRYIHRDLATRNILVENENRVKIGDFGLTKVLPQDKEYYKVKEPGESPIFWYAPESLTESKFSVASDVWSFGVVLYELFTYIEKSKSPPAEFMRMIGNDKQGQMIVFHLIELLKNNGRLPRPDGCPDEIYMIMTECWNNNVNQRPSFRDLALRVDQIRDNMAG
T1 sequence (P29597 whole entry): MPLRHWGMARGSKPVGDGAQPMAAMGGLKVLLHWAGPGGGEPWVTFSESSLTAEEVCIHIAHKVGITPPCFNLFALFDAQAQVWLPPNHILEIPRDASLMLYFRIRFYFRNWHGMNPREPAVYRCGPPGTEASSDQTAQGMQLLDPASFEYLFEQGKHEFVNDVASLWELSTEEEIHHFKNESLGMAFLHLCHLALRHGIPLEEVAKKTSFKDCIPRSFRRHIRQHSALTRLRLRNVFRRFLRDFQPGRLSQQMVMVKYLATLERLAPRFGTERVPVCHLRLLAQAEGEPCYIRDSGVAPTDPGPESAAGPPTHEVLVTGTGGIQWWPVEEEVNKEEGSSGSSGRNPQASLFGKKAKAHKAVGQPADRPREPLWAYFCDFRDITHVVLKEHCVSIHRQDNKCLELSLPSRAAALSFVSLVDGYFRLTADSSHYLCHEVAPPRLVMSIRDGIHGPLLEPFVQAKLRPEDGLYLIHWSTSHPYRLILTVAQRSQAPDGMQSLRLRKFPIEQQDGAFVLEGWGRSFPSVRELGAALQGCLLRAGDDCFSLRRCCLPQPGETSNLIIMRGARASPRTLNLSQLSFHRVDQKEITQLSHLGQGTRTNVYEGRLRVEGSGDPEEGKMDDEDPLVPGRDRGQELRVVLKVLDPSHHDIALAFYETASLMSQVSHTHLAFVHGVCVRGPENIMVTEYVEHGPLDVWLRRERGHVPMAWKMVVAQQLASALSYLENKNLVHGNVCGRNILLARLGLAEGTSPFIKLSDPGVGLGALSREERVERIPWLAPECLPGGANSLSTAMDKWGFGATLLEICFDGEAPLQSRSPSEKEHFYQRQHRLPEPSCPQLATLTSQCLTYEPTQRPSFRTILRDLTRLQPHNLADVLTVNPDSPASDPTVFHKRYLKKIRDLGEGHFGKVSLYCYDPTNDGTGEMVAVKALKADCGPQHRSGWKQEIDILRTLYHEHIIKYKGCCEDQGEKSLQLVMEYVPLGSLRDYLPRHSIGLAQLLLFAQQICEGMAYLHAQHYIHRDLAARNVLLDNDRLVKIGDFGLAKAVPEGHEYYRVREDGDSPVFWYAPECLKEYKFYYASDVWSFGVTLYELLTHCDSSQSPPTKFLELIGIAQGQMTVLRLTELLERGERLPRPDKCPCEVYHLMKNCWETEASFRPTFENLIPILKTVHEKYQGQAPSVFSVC

[H]/N=C(/NCCCCC)N/N=C/c1c[nH]c2ccc(OC)cc12 [Tegaserod maleate]
IC50 (STAT3): 5.06 µM

CCCCCNC(=N)N/N=C/c1c[nH]c2ccc(OC)cc12 [Tegaserod, 2-[(5-methoxy-1H-indol-3-yl)methylene]-N-pentylcarbazide]
inhibition of IL-6-induced STAT3 activation (Y705 phosphorylation) (STAT3 (Y705)): inhibited the activation of STAT3 induced by IL-6 in a dosage-dependent manner
inhibition of STAT3 activation (Tyr705 phosphorylation) (STAT3 Tyr705 [1]): could inhibit the activation of STAT3 in a dosage-dependent manner
phosphorylation level of STAT3 in tumors (immunohistochemistry) (phosphorylated STAT3): could effectively inhibit the phosphorylation level of STAT3
inhibition of phosphorylation at TYK2 Tyr1054/1055 (TYK2 Tyr1054/1055): could also inhibit the phosphorylation
inhibition of STAT3 activation (Tyr705 phosphorylation) (STAT3 Tyr705 [2]): could inhibit the activation of STAT3 in a dosage-dependent manner
IC50 [3]: 2.5 µM
infiltration of immune cells (CD45+) inside tumors [4]: promoted the infiltration of immune cells (CD45+) inside tumors
inhibition of phosphorylation at JAK2 Tyr1007/1008 (JAK2 Tyr1007/1008): could inhibit the phosphorylation
organ damage after anatomy ([5]; A549 nude mouse model, i.p. administration, experimental endpoint): no obvious organ damage was observed
body weight ([5]; A549 nude mouse model, i.p. administration, throughout the experiment): did not change significantly
body weight ([5]; A549 nude mouse model, oral administration): did not lose weight
drug toxicity (body weight) ([5]; DU145 nude mouse model, low-dosage, low-frequency oral administration): no obvious drug toxicity
drug toxicity ([5]; DU145 nude mouse model, oral administration): without obvious drug toxicity
drug toxicity ([5]; MC38 model, immune-sound mice): without obvious drug toxicity
inhibition of phosphorylation at JAK1 Tyr1022/1023 (JAK1 Tyr1022/1023; 7.5 μM, 2 h): could inhibit the phosphorylation
selectivity within the JAK kinase family (JAK1 Tyr1022/1023; JAK1 and JAK2 versus TYK2): higher affinity to JAK1 and JAK2 than to TYK2
anti-tumor effect relative to gefitinib ([6]; 5 mg/kg i.p. versus 100 mg/kg gefitinib p.o., A549 nude mice): comparable to that of 100 mg/kg gefitinib (p.o.)
growth of A549 transplanted tumors ([6]; 5 mg/kg i.p., nude mice, versus control group): could effectively inhibit the growth of A549 tumor cells
dependence of tumor inhibition rate on dosage ([6]; A549 transplanted tumor nude mouse model): no dependence on a Tegaserod dosage
growth of A549 transplanted tumors (tumor weight and tumor volume) ([6]; oral administration, nude mice): could inhibit the growth of A549 transplanted tumors in nude mice
total WBC count, neutrophils, lymphocytes, and platelets in the peripheral blood [7]: could stimulate the increase
tumor inhibition ability at reduced administration frequency ([8]; DU145 nude mice, oral, once every two days): exhibited a stronger tumor inhibition ability
dependence of tumor inhibition rate on dosage ([8]; DU145 transplanted tumor nude mouse model): no dependence on a Tegaserod dosage
growth of DU145 transplanted tumors ([8]; oral administration, nude mice): could effectively inhibit the growth of DU145 transplanted tumors in nude mice
IC50 (DLD1 colon cancer cells): 8.7 µM
IC50 (lung cancer A549 cells): 5.7 µM
proportion of immune cells (CD45+; CD11b+Ly6G+, CD11b+Ly6C+, CD335+) in tumors [9]: could increase the proportion of immune cells (CD45+) in tumors
growth of CRC MC38 transplanted tumors [10]: could effectively inhibit the growth of CRC MC38 transplanted tumors
tumor proliferation ability (Ki67 immunohistochemistry) [11]: decreased proliferation ability
genes of cytokine-cytokine receptor interaction and antigen processing and presentation (KEGG analysis) [12]: significantly up-regulated
IC50 (lung cancer H460 cells): 3.1 µM

COc1cc2ncnc(Nc3ccc(F)c(Cl)c3)c2cc1OCCCN1CCOCC1 [gefitinib]
total WBC count, neutrophils, lymphocytes, and platelets in the peripheral blood [7]: stimulate the increase
proportion of immune cells (CD45+; CD11b+Ly6G+, CD11b+Ly6C+, CD335+) in tumors [9]: also exhibited a similar immunomodulatory effect
